Laboratory results: patent publication US8455475B2 (Gruenenthal GmbH, priority 2009, dated 2013)
Counter-ions that a name gives are not always drawn.

Experiments:
[1] = molecular target: T1, rat B1R (bradykinin receptor 1) (Rattus norvegicus, UniProt P97583); assay: FLIPR Ca2+ assay (Fluo-4) on CHO K1 cells stably transfected with the B1R gene of the rat (rB1R cells): % inhibition at 10 μM / IC50, agonist Des-Arg9-bradykinin; assay type: cell-based; conditions: for inhibition at 10 µM: CHO-K1, rat B1R
T1 construct: expressed in transfected cells; host or cells: CHO K1 cells
T1 sequence (P97583 1-337): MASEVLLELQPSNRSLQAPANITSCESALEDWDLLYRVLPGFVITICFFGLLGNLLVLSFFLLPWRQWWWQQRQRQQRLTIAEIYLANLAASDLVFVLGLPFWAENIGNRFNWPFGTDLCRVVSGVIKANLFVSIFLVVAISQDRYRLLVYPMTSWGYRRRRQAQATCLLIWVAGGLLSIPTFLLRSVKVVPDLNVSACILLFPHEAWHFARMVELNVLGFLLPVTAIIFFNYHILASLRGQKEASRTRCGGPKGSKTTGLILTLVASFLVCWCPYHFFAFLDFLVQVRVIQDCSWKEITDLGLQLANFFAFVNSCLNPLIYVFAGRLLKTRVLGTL
Outline: (§1)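 Antagonism is measured as the drop in peak Fluo-4 Ca2+ signal when the EC80 agonist follows 10–20 min compound exposure. The single-point screen uses 10 μM; IC50 uses several concentrations. Values are given as % of maximal achievable inhibition.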

[2] = molecular target: T2, human B1R (bradykinin receptor 1) (Homo sapiens, UniProt P46663); assay: FLIPR Ca2+ assay (Fluo-4) on CHO K1 cells stably transfected with the human B1R gene (hB1R cells): % inhibition at 10 μM / IC50, agonist Lys-Des-Arg9-bradykinin; assay type: cell-based; conditions: for inhibition at 10 µM: CHO-K1, human B1R
T2 construct: expressed in transfected cells; host or cells: CHO K1 cells
T2 sequence (P46663 1-353): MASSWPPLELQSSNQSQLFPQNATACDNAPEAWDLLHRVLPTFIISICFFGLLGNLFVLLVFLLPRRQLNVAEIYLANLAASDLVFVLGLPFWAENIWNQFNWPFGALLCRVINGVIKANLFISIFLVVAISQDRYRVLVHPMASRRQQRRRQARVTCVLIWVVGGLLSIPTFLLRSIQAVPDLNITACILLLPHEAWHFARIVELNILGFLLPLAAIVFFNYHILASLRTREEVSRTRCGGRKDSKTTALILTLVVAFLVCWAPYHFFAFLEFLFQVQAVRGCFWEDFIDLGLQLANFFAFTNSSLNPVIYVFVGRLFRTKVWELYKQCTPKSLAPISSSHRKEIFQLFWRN
Outline: as §1

Row | inhibition at 10 µM [1] | inhibition at 10 µM [2] | % Inhibition (rat B1R) at 10 μM [1] | % Inhibition (human B1R) at 10 μM [2] | Compound
1 | 55% | 33% | – | – | CN1CCN(C(=O)C2CCC3(CC2)CCN(C(=O)c2ccc4c(c2)[C@H](NC(=O)c2ccccc2Cl)CC4)CC3)CC1 [Example H-29, 2-chloro-N-[(1R)-6-[9-(4-methyl-piperazine-1-carbonyl)-3-azaspiro[5.5]undecane-3-carbonyl]-2,3-dihydro-1H-inden-1-yl]-benzamide]
2 | 104% | 100% | – | – | Cc1ccccc1C(=O)N[C@@H]1CCc2ccc(C(=O)N3CCC4(CCN(c5ccncc5)CC4)C3)cc21 [Example H-53, 2-Methyl-N-[(1R)-6-(8-pyridin-4-yl-3,8-diazaspiro[4.5]decane-3-carobnyl)-2,3-dihydro-1H-inden-1-yl]-benzamide]
3 | 104% | 99% | – | – | COc1ccc(S(=O)(=O)N[C@@H]2CCc3ccc(C(=O)N4CCC5(CCN(c6ccncc6)CC5)C4)cc32)c(C(F)(F)F)c1 [Example H-144, 4-Methoxy-N-[(1R)-6-(8-pyridin-4-yl-3,8-diazaspiro[4.5]decane-3-carbonyl)-2,3-dihydro-1H-inden-1-yl]-2-(trifluoromethyl)-benzenesulfonic acid amide]
4 | 107% | 97% | – | – | O=C(N[C@@H]1CCc2ccc(C(=O)N3CCC4(CCN(c5ccncc5)CC4)C3)cc21)c1ccccc1F [Example H-101, 2-Fluoro-N-[(1R)-6-(8-pyridin-4-yl-3,8-diazaspiro[4.5]decane-3-carbonyl)-2,3-dihydro-1H-inden-1-yl]-benzamide]
5 | 103% | 90% | – | – | O=C(N[C@@H]1CCCc2ccc(C(=O)N3CCCC4(CCN(c5ccncc5)C4)C3)cc21)c1ccccc1Cl (stereo partly drawn) [Example H-70, 2-Chloro-N-[(1R)-7-(2-pyridin-4-yl-2,9-diazaspiro[4.5]decane-9-carbonyl]-1,2,3,4-tetrahydro-naphthalen-1-yl]-benzamide]
6 | 101% | 100% | – | – | O=C(c1ccc2c(c1)[C@H](N1Cc3cccc(Cl)c3C1=O)CCC2)N1CCC2(CCN(c3ccncc3)CC2)C1 [Example H-13, 7-chloro-2-[(1R)-7-(8-pyridin-4-yl-3,8-diazaspiro[4.5]decane-3-carbonyl)-1,2,3,4-tetrahydro-naphthalen-1-yl]-2,3-dihydro-isoindol-1-one]
7 | 106% | 100% | – | – | O=C(NC1CCc2ccc(C(=O)N3CCC4(CCN(c5ccncc5)C4)C3)cc21)c1ccccc1Cl (stereo not drawn) [Example H-04, 2-chloro-N-[6-(8-pyridin-4-yl-3,8-diazaspiro[4.4]nonane-3-carbonyl)-2,3-dihydro-1H-inden-1-yl]-benzamide]
8 | 103% | 100% | – | – | O=C(N[C@@H]1CCc2cc(F)c(C(=O)N3CCC4(CC3)CCN(c3ccncc3)CC4)cc21)c1ccccc1Cl [Example H-90, 2-Chloro-N-[(1R)-5-fluoro-6-(9-pyridin-4-yl-3,9-diazaspiro[5.5]undecane-3-carbonyl)-2,3-dihydro-1H-inden-1-yl]-benzamide]
9 | 104% | 96% | – | – | O=C(N[C@@H]1CCOc2cc(F)c(C(=O)N3CCC4(CC3)CCN(c3ccncc3)CC4)cc21)c1ccccc1Cl [Example H-92, 2-Chloro-N-[(4R)-7-fluoro-6-(9-pyridin-4-yl-3,9-diazaspiro[5.5]undecane-3-carbonyl)-3,4-dihydro-2H-chromen-4-yl]-benzamide]
10 | 105% | 100% | – | – | O=C(N[C@@H]1CCc2ccc(C(=O)N3CCC4(CCN(c5ccncc5)CC4)C3)cc21)c1c(Cl)cccc1Cl [Example H-99, 2,6-Dichloro-N-[(1R)-6-(8-pyridin-4-yl-3,8-diazaspiro[4.5]decane-3-carbonyl)-2,3-dihydro-1H-inden-1-yl]-benzamide]
11 | 101% | 99% | – | – | O=C(Cc1ccccc1F)N[C@@H]1CCc2ccc(C(=O)N3CCC4(CCN(c5ccncc5)CC4)C3)cc21 [Example H-152, 2-(2-Fluorophenyl)-N-[(1R)-6-(8-pyridin-4-yl-3,8-diazaspiro[4.5]decane-3-carbonyl)-2,3-dihydro-1H-inden-1-yl]-acetamide]
12 | 103% | 99% | – | – | O=C(c1ccc2c(c1)[C@H](N(CC(F)(F)F)C(=O)c1ccccc1Cl)CC2)N1CCC2(CCN(c3ccncc3)CC2)C1 [Example H-137, 2-Chloro-N-[(1R)-6-(8-pyridin-4-yl-3,8-diazaspiro[4.5]decane-3-carbonyl)-2,3-dihydro-1H-inden-1-yl]-N-(2,2,2-trifluoro-ethyl)-benzamide]
13 | 105% | 100% | – | – | O=C(N[C@@H]1CCc2cc(F)c(C(=O)N3CCC4(CCN(c5ccncc5)CC4)C3)cc21)c1ccccc1Cl [Example H-64, 2-Chloro-N-[(1R)-5-fluoro-6-(8-pyridin-4-yl-3,8-diazaspiro[4.5]decane-3-carbonyl)-2,3-dihydro-1H-inden-1-yl]-benzamide hydrochloride]

Second part, the compound before the results:

Row | Compound | inhibition at 10 µM [1] | inhibition at 10 µM [2] | % Inhibition (rat B1R) at 10 μM [1] | % Inhibition (human B1R) at 10 μM [2]
14 | Cn1cncc1CN1CCC2(CC1)CCN(C(=O)c1ccc3c(c1)C(NC(=O)c1ccccc1Cl)CC3)CC2 (stereo not drawn) [IND_CC-526, 2-Chloro-N-[6-[9-[(3-methyl-3H-imidazol-4-yl)-methyl]-3,9-diazaspiro[5.5]undecane-3-carbonyl]-2,3-dihydro-1H-inden-1-yl]-benzamide] | 87% | 25% | – | –
15 | CN(C(=O)c1c(Cl)cccc1Cl)C1CCc2ccc(C(=O)N3CCC4(CC3)CCN(c3ccncc3)CC4)cc21 (stereo not drawn) [IND_CC-268, 2,6-Dichloro-N-methyl-N-[6-(9-pyridin-4-yl-3,9-diazaspiro[5.5]undecane-3-carbonyl)-2,3-dihydro-1H-inden-1-yl]-benzamide] | 108% | 99% | – | –
16 | CC1(C)CC(NC(=O)c2ccc(Cl)s2)c2cc(C(=O)N3CCC4(CC3)CCN(c3ccncc3)CC4)ccc21 (stereo not drawn) [Ind_CC-054, 5-chloro-N-[3,3-dimethyl-6-(9-pyridin-4-yl-3,9-diazaspiro[5.5]undecane-3-carbonyl)-1,2-dihydro-inden-1-yl]-thiophene-2-carboxylic acid amide] | 102% | 96% | – | –
17 | Cc1cccc(C)c1C(=O)NC1c2cc(C(=O)N3CCC4(CC3)CCN(c3ccncc3)CC4)ccc2CC1(C)C (stereo not drawn) [IND_CC-308, N-[2,2-Dimethyl-6-(9-pyridin-4-yl-3,9-diazaspiro[5.5]undecane-3-carbonyl)-1,3-dihydro-inden-1-yl]-2,6-dimethyl-benzamide] | 106% | 97% | – | –
18 | O=C(NC1CCc2ccc(C(=O)N3CCC4(CCN(c5ccncc5)CC4)C3)cc21)c1cc(F)ccc1Cl (stereo not drawn) [IND_CC-253, 2-Chloro-5-fluoro-N-[6-(8-pyridin-4-yl-2,8-diazaspiro[4.5]decane-2-carbonyl)-2,3-dihydro-1H-inden-1-yl]-benzamide] | 100% | 100% | – | –
19 | O=C(NC1CCc2ccc(C(=O)N3CCC4(CC3)CCN(c3cccnc3)CC4)cc21)c1ccccc1Cl (stereo not drawn) [Ind_CC-096, 2-chloro-N-[6-(9-pyridin-3-yl-3,9-diazaspiro[5.5]undecane-3-carbonyl)-2,3-dihydro-1H-inden-1-yl]-benzamide] | 101% | 91% | – | –
20 | 2-Chloro-N-[6-(2-pyridin-4-yl-2,8-diazaspiro[4.5]decane-8-carbonyl)-2,3-dihydro-1H-inden-1-yl]-6-(trifluoromethyl)-benzamide [IND_CC-205] | – | – | 103% | 100%
21 | O=C(Nc1ccc(Cl)c(Cl)c1)NC1CCc2ccc(C(=O)N3CCC4(CC3)CCN(c3ccncc3)C4)cc21 (stereo not drawn) [Ind_CC-047] | – | – | 60% | 94%
22 | O=C(c1ccc2c(c1)C(NS(=O)(=O)Cc1ccccc1C(F)(F)F)CC2)N1CCC2(CCN(c3ccncc3)CC2)C1 (stereo not drawn) [IND_CC-258, N-[6-(8-Pyridin-4-yl-2,8-diazaspiro[4.5]decane-2-carbonyl)-2,3-dihydro-1H-inden-1-yl]-1-[2-(trifluoromethyl)-phenyl]-methanesulfonic acid amide] | 95% | 100% | – | –
23 | CN(C(=O)c1ccccc1Cl)C1CCc2ccc(C(=O)N3CCC4(CCN(Cc5ccncc5)CC4)CC3)cc21 (stereo not drawn) [Ind_CC-109, 2-chloro-N-methyl-N-[6-[9-(pyridin-4-yl-methyl)-3,9-diazaspiro[5.5]undecane-3-carbonyl]-2,3-dihydro-1H-inden-1-yl]-benzamide] | 29% | 33% | – | –
24 | CN(C(=O)c1ccc(F)cc1Cl)C1CCc2ccc(C(=O)N3CCC4(CC3)CCN(c3ccncc3)CC4)cc21 (stereo not drawn) [IND_CC-261, 2-Chloro-4-fluoro-N-methyl-N-[6-(9-pyridin-4-yl-3,9-diazaspiro[5.5]undecane-3-carbonyl)-2,3-dihydro-1H-inden-1-yl]-benzamide] | 103% | 100% | – | –
